Consider one compound from patent publication US9296687B2, “Modulators of HSP70/DnaK function and methods of use thereof” (The Trustees of the University of Pennsylvania, priority 2008, dated 2016).

Entries after “also recorded” stand apart in the source; their conditions may differ.

Test [1] concerns FADU cells. Put plainly: Colony formation assay with gamma radiation. The class given is cell-based, human. Conditions: PES 10 μM + 10 Gy. The method, then:
(§1) Fadu or Scc 61 (squamous cell carcinoma of the head and neck) cell lines were grown in DMEM supplemented with 10% fetal bovine serum and antibiotics. Cells were pre-treated with PES (10 μM) for 24 hr after which they were subject to gamma radiation (either 2 or 10 Gy) and plated at different densities in 6 well plates; the wells depicted were plated at 2000 cells/well. After 10 days, colonies were stained with crystal violet.

Test [2] relates to Scc61 cells. Nature of the test: Colony formation assay with gamma radiation. The test is classed as cell-based, human. The settings on record: PES + 2 Gy. The procedure:
as §1

Test [3] concerns EGFR, HER2/ErbB2, AKT. Nature of the test: Western blot of HSP70/HSP90 client proteins in detergent-soluble and detergent-insoluble fractions. The test is classed as cell-based, human. The procedure: FIG. 17. PES impairs the proteasome system. (A) Cell-based 20S proteasome activity assay of H1299 or A875 human tumor cells treated with DMSO, 20 μM PES, 100 nM Velcade (proteasome inhibitor), 1 μM 17-AAG (HSP90 inhibitor), 5 μM CQ (lysosome inhibitor), or 20S proteasome inhibitor epigallocatechin gallate (EGCG). Each graphical representation indicates the mean±SD of at least three independent cultures relative to control (DMSO-treated) cells. (B) Cell extracts from SKBR3 human breast carcinoma cells, treated either with 20 μM PES or 1 μM 17-AAG for 24 h, were immunoprecipitated (IP) using anti-HSP70 or anti-HSP90 antibody. […] MTT assays of MCF7 human breast carcinoma cells pretreated with DMSO, or 5 μM PES for 1 h, followed by the addition of indicated amount of 17-AAG for 47 h. The results represent the mean±SD of at least three independent analysis of cultures relative to control (DMSO-treated) cells. (D and E) H1299 cells (D) or SKBR3 cells (E) were treated with DMSO, 20 μM PES, 17-AAG, or 17-AAG plus bortezomib (Velcade) as indicated; harvested in 1% NP-40 containing lysis buffer; fractionated into detergent-soluble and detergent-insoluble preparations; and assayed by western blot.
FIG. 18. Accumulation of HSP90 client proteins in the protein detergent-insoluble fraction following PES. (A) SKOV3 cells were treated with DMSO, 10 μM PES, or 20 μM PES for 24 h. Note the marked accumulation of EGFR, HER2/ErbB2, and AKT in the detergent-insoluble fraction following 20 μM PES treatment. (B and C) SKOV3 (B) or SKBR3 (C) cells were treated with DMSO, 20 μM PES, or 1 μM 17-AAG, as indicated, for 24 h. Cells were harvested in 1% NP-40 containing lysis buffer, fractionated into detergent-soluble and detergent-insoluble preparations, and assayed by western blot for the proteins indicated.
The HSP70 and HSC70 proteins bind to exposed hydrophobic regions of nascent-, translocating-, misfolded- or partially unfolded-proteins. These ATP-dependent molecular chaperones act in multi-protein complexes in conjunction with one or more regulatory co-chaperones to carry out multiple cellular functions. […] This is illustrated for H1299 cells treated with 10 or 20 μM PES for 24 h. […] This correlates with a reduced abundance of complexes containing HSP70, or HSC70, together with client proteins or co-chaperones (FIGS. 19A and 19B). […] However, since HSP70/HSC70 act as critical co-chaperones for HSP90, for example in client protein recruitment, PES-mediated alteration in the function of the 70-kDa molecular chaperones could be reflected in an altered behavior or expression of many client proteins. To test this idea, we examined the expression of a few well-established HSP90 client proteins, including the transmembrane tyrosine kinase receptors EGFR and HER2/ERBB2, and the downstream signaling factor AKT. These proteins are overexpressed, or aberrantly expressed, in a variety of human tumors, and have been implicated in cancer etiology and pathology. As a control for these studies, we compared the effects of PES to that of the well-established HSP90 inhibitor, 17-allylamino-17-demethoxygeldanamycin (17-AAG). 17-AAG interacts with the N-terminal region of HSP90 and inhibits its ATPase activity; this disrupts interactions of HSP90 with client proteins and leads to client-protein degradation via the ubiquitin-proteasome pathway (Whitesell, et al. 2005; Neckers, et al. 2007). To examine the expression of some HSP70/HSP90 clients, we used western blot analysis of detergent-soluble (clarified) whole cell extracts.

The subject of test [4] is 20S proteasome. Put plainly: Cell-based 20S proteasome activity assay. Conditions: H1299 or A875 cells; PES 20 μM, 17-AAG 1 μM, CQ 5 μM. On the set-up: species or system human.
Test [5] has as its system Eμ-Myc transgenic mice. Put plainly: Eμ-Myc mouse model of lymphomagenesis. The class given is in vivo. The procedure:
To evaluate the efficacy of PES as a chemopreventative agent, Eμ-Myc transgenic mice were injected every 5 days, starting at 8 weeks of age, with either vehicle or PES (40 mg/kg) prepared in PBS. All animals received a total of 7 injections, either with PES or vehicle. Consequently, no injection was given after day 86. All mice were observed daily for signs of morbidity and the development of lymphoma. All experiments with mice were approved by, and conformed to, the guidelines of the Institutional Animal Care and Use Committee of the Fox Chase Cancer Center. These mice may also be used to advantage to test the beneficial therapeutic combinations of agents and/or treatments described herein.
Beginning at 6 weeks of age, Eμ-myc transgenic mice were treated either with vehicle, 20 mg/kg PES or 20 mg/kg PES-Cl with weekly i.p. injections of tested compound (FIG. 27).

The test system of test [6] is normal human lung fibroblasts (IMR90). Nature of the test: MTT cell viability assay. The class given is cell-based. The settings on record: 24 h, except at the highest concentrations used. The method, then: (§2) Cell viability assays were performed using an MTT (methyl thiazolyl tetrazolium) colorimetric assay (Roche Applied Science, Cat. No. 11 465 007 001), with the following modifications. Briefly, cells (1×10^4) were plated into 24 well-assay plates in 0.5 ml media and allowed to attach overnight. […] After the incubation period, 50 μl of the water-soluble MTT labeling reagent [3-[4,5-dimethylthiazol-2-yl]-2,5-diphenyl tetrazolium bromid] were added to the cells, and the cells were incubated for 4 h in a humidified chamber at 37° C. with 5% CO2. The metabolized insoluble formazan crystals were then solubilized using 0.5 ml of the Solubilization solution (10% SDS in 0.01M HCl) per well, and the resulting colored solutions were spectrophotometrically quantified at an absorbance of 570 nm.
For orientation: Tetrazolium assays rely on reduction of a dye to a coloured formazan, in cell work by metabolically active cells.

For test [7], the system named is H1299 human lung carcinoma cells. Put plainly: MTT cell viability assay. The class given is cell-based. The procedure: as §2
Test [8] deals with WI38 human fetal lung fibroblasts. Nature of the test: MTT cell viability assay. The class given is cell-based. Conditions: except at the highest concentration tested (20 μM). The method, then: as §2
Test [9] has as its system cathepsin L. Nature of the test: Western blot of cathepsin L processing. The test is classed as cell-based, human. Conditions: 20 μM, 24 h. In general terms: Immunoblotting shows a protein as a band on a membrane.

Consider `NS(=O)(=O)C#Cc1ccccc1` [PES, 2-Phenylethynesulfonamide], for which the “colony formation with radiation” value is “combine effectively to reduce the capacity to form colonies” in test [1] and “effectively diminished the capacity of these cells to form colonies” in test [2]. Moreover, the “EGFR, HER2/ErbB2 and AKT in the detergent-insoluble fraction” value in [3] (20 μM, 24 h) is “increased abundance of EGFR, HER2/ErbB2, and AKT in the detergent-insoluble fraction”. In addition, the “expression of integrin β1 and CHIP” value in [3] (H1299 cells, 20 μM, 24 h) is given as “lower expression levels”. Moreover, in test [3] (SKBR3 cells, detergent-soluble extracts, 24 h), the “overall cellular abundance of EGFR, HER2/ErbB2 and AKT” value is “reduction in the overall cellular abundance”. In [3] (SKBR3 or SKOV3 cells), the “other cellular proteins in the detergent-insoluble fraction” value was “many of the proteins examined accumulate in the detergent-insoluble fraction”. Further, the “activity of the 20S proteasome” value in [4] was “impairs the activity of the 20S proteasome”. Also, the tumor development result in test [5] (40 mg/kg i.p. once every five days for 30 days) is recorded as “markedly impaired tumor development”. Further, the “overall mean survival time” value in test [5] (40 mg/kg intra-peritoneally every 5 days for 30 days) is recorded as above 140 days. For the same compound, the cell viability result in [6] is listed as “minimal effect”; in test [7], “effective at killing HI299 lung carcinoma cells; also recorded: dose-dependent loss of viability”; in [8] it was “no decrease in cell viability”. Also, the “PES-induced cell death after silencing of HSP70” value in test [7] (HSP70 shRNA, 20 μM PES 24 h) is on record as “rescued PES-induced cell death”. For the same compound, the “processing of cathepsin L” value in test [9] was “accumulation of the precursor pro-cathepsin L and a markedly reduced abundance of the smaller, mature form of the enzyme”.
